Laboratory results from paper PMC10714399, “Open Source Antibiotics: Simple Diarylimidazoles Are Potent against Methicillin-Resistant Staphylococcus aureus” (ACS Infectious Diseases, 2023).
≈ marks a conversion by molar mass, not a printed value. Like-named read-outs stand apart in the source and are kept apart here.

Columns and labels:
[1] = tested on: Staphylococcus aureus NCTC 13373 (mecA-positive; methicillin-resistant); test: In vitro antibacterial activity, MIC (UCL School of Pharmacy assay), MRSA; format: cell-based; details: for MIC: Staphylococcus aureus
Protocol: (§1) Staphylococcus aureus NCTC 13373 (mecA-positive; methicillin-resistant, NCTC 13373) was supplied by the National Collection of Type Cultures (NCTC), Public Health England, United Kingdom. Other organisms, S. aureus ATCC 25923 (methicillin-susceptible) and Enterococcus faecalis ATCC 51299 (vanA-positive; vancomycin-resistant), were obtained from the American Type Culture Collection (ATCC) via LGC Standards, UK. A suspension of each organism was prepared from an overnight plate culture (tryptone soya agar) in phosphate-buffered saline (PBS) and adjusted to an absorbance reading at 600 nm of 0.1, which is approximately equivalent to 1 × 10^8 colony-forming units (CFU) per mL. The cultures were further diluted 1:100 in isosensitest broth (Oxoid, United Kingdom) before 100 μL was used to inoculate each well of a 96-well plate that contained diluted samples of the OSA series. Compounds were evaluated over a 2-fold dilution range from 32 to 0.03 μg/mL. Stocks of the samples were prepared in 100% DMSO at […] before being diluted in isosenstitest broth. The highest concentration of DMSO present was 2%, which has been previously shown not to inhibit the growth of the microorganisms (data not shown). […] Vancomycin was used as a quality control compound.

[2] = tested on: Enterococcus faecalis ATCC 51299 (vanA-positive; vancomycin-resistant); test: In vitro antibacterial activity, MIC (UCL), VRE; format: cell-based
Protocol: as §1

[3] = tested on: S. aureus ATCC 25923 (methicillin-susceptible); test: In vitro antibacterial activity, MIC (UCL), MSSA; format: cell-based, Staphylococcus aureus; details: for MIC: Staphylococcus aureus
Protocol: as §1

[4] = UCL assay, read-out: MRSA MIC (ug/mL) (UCL)
[5] = UCL assay, read-out: MSSA MIC (ug/mL) (UCL)

SMILES: COCc1ccc2nc(-c3ccccn3)c(Nc3cccc(F)c3)n2c1 [compound 852]
- MRSA MIC [1]: > 32 µg/mL
- VRE MIC [2]: > 32 µg/mL

SMILES: N#Cc1cccc(-c2c(-c3ccccn3)nc3n2CCC3)c1 [compound 864]
- MIC ([1]; read-out: MRSA MIC): > 32 µg/mL
- MIC ([2]; read-out: VRE MIC): > 32 µg/mL

SMILES: Cn1ccnc1-c1nc2ccccn2c1Nc1ccc(F)cc1 [compound 847]
- MIC ([1]; read-out: MRSA MIC): > 32 µg/mL
- MIC ([2]; read-out: VRE MIC): > 32 µg/mL

SMILES: c1ccc(-c2nc3ccccn3c2N2CCOCC2)nc1 [compound 850]
- MRSA MIC [1]: > 32 µg/mL
- VRE MIC [2]: > 32 µg/mL

SMILES: COc1ccc2nc(-c3c[nH]cn3)c(Nc3ccc4c(c3)OCCO4)n2c1 [compound 867]
- MRSA MIC [1]: > 32 µg/mL
- VRE MIC [2]: > 32 µg/mL

SMILES: Clc1ccc(-c2c(-c3ccccn3)nc3n2CCC3)cc1Cl [compound 876]
- MIC ([1]; read-out: MRSA MIC): 8 µg/mL (≈ 24.2 µM)
- MIC ([2]; read-out: VRE MIC): 8 µg/mL (≈ 24.2 µM)

SMILES: c1ccc(-c2nc3ncccn3c2-c2ccc3occc3c2)nc1 [OSA_000863]
- MIC ([1]; UCL, read-out: MRSA MIC (UCL)): > 32 µg/mL
- MIC ([2]; read-out: VRE MIC (UCL)): > 32 µg/mL

SMILES: CC(C)CN(c1ccc(F)cc1)c1c(-c2ccccn2)nc2cnccn12 [OSA_001035]
- MIC [1, 4]: > 32 µg/mL
- MIC [3, 5]: > 32 µg/mL

SMILES: COc1ccn2c(NCc3cn(C)cn3)c(-c3ccccn3)nc2c1 [OSA_000853]
- MIC ([1]; UCL, read-out: MRSA MIC (UCL)): > 32 µg/mL
- MIC ([2]; read-out: VRE MIC (UCL)): > 32 µg/mL

SMILES: CC(=O)c1ccc(-c2c(-c3ccccn3)nc3n2CCC3)cc1 [OSA_000973]
- MIC ([1]; UCL, read-out: MRSA MIC (UCL)): > 32 µg/mL
- MIC ([2]; read-out: VRE MIC (UCL)): > 32 µg/mL

SMILES: N#Cc1ccc(-c2c(-c3ccccn3)nc3ccccn23)cc1 [compound 1104]
- MRSA MIC [1]: > 32 µg/mL
- MSSA MIC [3]: > 32 µg/mL

SMILES: Cc1ccc(C(=O)Nc2c(-c3ccccn3)nc3ccccn23)cc1 [compound 1017]
- MIC ([1]; read-out: MRSA MIC): > 32 µg/mL
- MIC ([3]; read-out: MSSA MIC): > 32 µg/mL

SMILES: Cc1ccn2c(Nc3ccc(F)cc3)c(-c3ccc(N(C)C)cc3)nc2c1 [OSA_000846]
- MIC ([1]; UCL, read-out: MRSA MIC (UCL)): > 32 µg/mL
- MIC ([2]; read-out: VRE MIC (UCL)): > 32 µg/mL

SMILES: [2H]C([2H])([2H])N(c1ccc(F)cc1)c1c(-c2ccccn2)nc2ccccn12 [compound 1002]
- MIC ([1]; read-out: MRSA MIC): 16 µg/mL (≈ 49.8 µM)
- MIC ([3]; read-out: MSSA MIC): 16 µg/mL (≈ 49.8 µM)

SMILES: COc1ccn2c(Nc3ccc4c(c3)OCCO4)c(-c3c[nH]cn3)nc2c1 [compound 866]
- MRSA MIC [1]: > 32 µg/mL
- VRE MIC [2]: > 32 µg/mL

SMILES: COc1ccc(-c2nc3ccccn3c2Nc2ccc(F)cc2)nc1 [compound 1022]
- MIC ([1]; read-out: MRSA MIC): 8 µg/mL (≈ 23.9 µM)
- MIC ([3]; read-out: MSSA MIC): 8 µg/mL (≈ 23.9 µM)

SMILES: Fc1ccc(Nc2c(-c3ccc[nH]3)nc3ccccn23)cc1 [compound 1009]
- MIC ([1]; read-out: MRSA MIC): > 32 µg/mL
- MIC ([3]; read-out: MSSA MIC): > 32 µg/mL

SMILES: Cc1cccc(-c2c(-c3ccccn3)nc3n2CCC3)c1 [compound 976]
- MIC ([1]; read-out: MRSA MIC): 8 µg/mL (≈ 29.1 µM)
- MIC ([2]; read-out: VRE MIC): 32 µg/mL (≈ 116 µM)

SMILES: c1ccn2c(NC3CCCC3)c(-c3nccs3)nc2c1 [OSA_000845]
- MIC ([1]; UCL, read-out: MRSA MIC (UCL)): > 32 µg/mL
- MIC ([2]; read-out: VRE MIC (UCL)): > 32 µg/mL

SMILES: CC(C)CN(c1ccc(F)cc1)c1c(-c2ccccn2)nc2cc(F)ccn12 [compound 1023]
- MRSA MIC [1]: 8 µg/mL
- MSSA MIC [3]: 4 µg/mL

SMILES: N#Cc1ccc(C(=O)Nc2c(-c3ccccn3)nc3ccccn23)cc1 [OSA_001016]
- MIC ([1]; UCL, read-out: MRSA MIC (UCL)): > 32 µg/mL
- MIC ([3]; read-out: MSSA MIC (UCL)): > 32 µg/mL

SMILES: CN(c1ccc(F)cc1)c1c(-c2ccccn2)nc2c(F)cccn12 [compound 1006]
- MIC ([1]; 16 h, read-out: MRSA MIC): > 32 µg/mL
- MIC ([3]; 16 h, read-out: MSSA MIC): > 32 µg/mL

SMILES: CC(C)CN(c1ccc(F)cc1)c1c(-c2ccccn2)nc2ncccn12 [compound 1038]
- MIC ([1]; read-out: MRSA MIC): 6 µg/mL (≈ 16.6 µM)
- MIC ([3]; read-out: MSSA MIC): 8 µg/mL (≈ 22.1 µM)

SMILES: CC(C)CN(c1ccc(F)cc1)c1c(-c2ccccn2)nc2cccnn12 [compound 1036]
- MIC ([1]; read-out: MRSA MIC): 32 µg/mL (≈ 88.5 µM)
- MIC ([3]; read-out: MSSA MIC): 32 µg/mL (≈ 88.5 µM)

SMILES: CC(C)CN(c1ccc(F)cc1)c1c(-c2ccccn2)nc2cccnn12 [OSA_001036]
- MIC [1, 4]: 32 µg/mL (≈ 88.5 µM)
- MIC [3, 5]: 32 µg/mL (≈ 88.5 µM)

SMILES: CC(C)CN(c1ccc(F)cc1)c1c(-c2ccccn2)nc2ccc(S(C)(=O)=O)cn12 [compound 1037]
- MRSA MIC [1]: > 32 µg/mL
- MSSA MIC [3]: > 32 µg/mL

SMILES: CC(C)CN(Cc1c(-c2ccccn2)nc2ccccn12)c1ccc(F)cc1 [compound 1040]
- MIC ([1]; read-out: MRSA MIC): 32 µg/mL (≈ 85.5 µM)
- MIC ([3]; read-out: MSSA MIC): > 32 µg/mL
